This note sets out measurements from patent US10150733B2, “Amidoheteroaryl aroyl hydrazide ethynes” (SUN PHARMA ADVANCED RESEARCH COMPANY LTD., priority 2015, dated 2018).

In test [1] the test system is c-Abl kinase (K562 cells). Put plainly: In-vitro cell proliferation assay (MTT), K562 cells. The settings on record: for inhibition at 0.001 µM / inhibition at 0.01 µM / inhibition at 0.1 µM: Homo sapiens. The class given is cell-based. As for the experimental part:
In-vitro Cell Proliferation Assay
K562/U937 cells (2×10^4 per well) were incubated with the test compounds/vehicle in a total volume of 200 μL of media at 37° C. with 5% CO2. On day 4, 20 μL MTT 5 mg/ml was added and the cells were incubated for 4-5 hours followed by addition of 100 μL of 10% SDS prepared in 0.06N HCl. The cells were incubated overnight at 37° C. with 5% CO2. On Day 5 the optical density was measured at 570 nm with 630 nm as reference wavelength. The optical density in the vehicle treated wells was compared with that of the test compound treated wells.

Test [2] addresses mutated Abl (T315I) (human) (Homo sapiens, UniProt P00519, T315I). Put plainly: Mutated Abl (T315I) (human) kinase assay, 33P-ATP filter binding. In kind it is biochemical. To be noted: for inhibition at 0.003 µM: 3 nM; for inhibition at 0.03 µM: 30 nM. As for the experimental part:
Mutated Abl (T315I) (Human)Kinase
In a final reaction volume of 25 μL, mutated Abl (T315I) (human) (5-10 mU) is incubated with 8 mM MOPS pH7.0, 0.2 mM EDTA, […] EAIYAAPFAKKK, 10 mM Mg(OAc)2 and [γ-33P-ATP] [specific activity approx. 500 cpm/pmol, concentration as required]. The reaction is initiated by the addition of the MgATP mix. After incubation for 40 minutes at room temperature, the reaction is stopped by the addition of 5 μL of a 3% phosphoric acid solution. 10 μL of the reaction is then spotted onto a P30 filtermat and washed three times for 5 minutes in 75 mM phosphoric acid and once in methanol prior to drying and scintillation counting.

Broadly, the inhibition is the drop in the measured response relative to a control, in per cent. On to `Cc1ccc(C(=O)NNC(=O)c2c(C)cccc2Cl)cc1C#Cc1ccc(NC(=O)C2CC2)nc1` [I.1, cyclopropanecarboxylic acid (5-{5-[N′-(2-chloro-6-methylbenzoyl)hydrazinocarbonyl]-2-methyl-phenylethynyl}-pyridin-2-yl)amide], for which at 0.001 µM the inhibition in test [1] (1 nM) was 84.7%. In test [1] (10 nM), this molecule yielded an inhibition at 0.01 µM of 91.1%. The molecule also came in with an inhibition at 0.1 µM in test [1] (100 nM) of 87%. In test [2], this molecule registered an inhibition at 0.003 µM of 87% and an inhibition at 0.03 µM of 98%.
Take `Cc1ccc(C(=O)NNC(=O)c2c(C)cccc2Cl)cc1C#Cc1ccc(NC(=O)CN(C)C)nc1` [I.2, N-(5-{5-[N′-(2-chloro-6-methylbenzoyl)hydrazinocarbonyl]-2-methyl-phenylethynyl}-pyridin-2-yl)-2-dimethylaminoacetamide]: 0.001 µM produced 71.6% inhibition in test [1] (1 nM). For the same molecule, the inhibition at 0.01 µM in test [1] (10 nM) stood at 82.5%. For the same molecule, the inhibition at 0.1 µM in test [1] (100 nM) was 82.9%. Further, in test [2], the inhibition at 0.003 µM amounted to 50% and 0.03 µM produced 87% inhibition.
`Cc1ccc(C(=O)NNC(=O)c2c(C)cccc2Cl)cc1C#Cc1ccc(NC(=O)CCN2CCN(C)CC2)nc1` [I.3, N-(5-{5-[N′-(2-Chloro-6-methylbenzoyl)hydrazinocarbonyl]-2-methyl-phenylethynyl}-pyridin-2-yl)-3-(4-methyl-piperazin-1-yl)propionamide] registered an inhibition at 0.001 µM in test [1] (1 nM) of 75%. In addition, the inhibition at 0.01 µM in test [1] (10 nM) was found to be 85.5%. Also, the inhibition at 0.1 µM in test [1] (100 nM) was 87.9%. In addition, in test [2], the inhibition at 0.003 µM came out at 59% and testing at 0.03 µM gave an inhibition of 94%.
`Cc1ccc(C(=O)NNC(=O)c2c(C)cccc2Cl)cc1C#Cc1ccc(NC(=O)CN2CCC(N(C)C)CC2)nc1` [I.4, N-(5-{5-[N′-(2-Chloro-6-methyl-benzoyl)hydrazinocarbonyl]-2-methyl-phenylethynyl}-pyridin-2-yl)-2-(4-dimethylaminopiperidin-1-yl)acetamide]: 0.001 µM produced 76.5% inhibition in test [1] (1 nM). Further, the inhibition at 0.01 µM in test [1] (10 nM) worked out at 81.4%. The molecule also had an inhibition at 0.1 µM in test [1] (100 nM) of 86.9%. In test [2], this molecule returned an inhibition at 0.003 µM of 70% and an inhibition at 0.03 µM of 95%.
In the same order, the values of `Cc1ccc(C(=O)NNC(=O)c2c(C)cccc2Cl)cc1C#Cc1ccc(NC(=O)CN2CCC(N(C)C)C2)nc1` (centres unmarked) [I.5, N-(5-{5-[N′-(2-Chloro-6-methyl-benzoyl)hydrazinocarbonyl]-2-methyl-phenylethynyl}-pyridin-2-yl)-2-(3-dimethylaminopyrrolidin-1-yl)acetamide] are 71.4%, 81.7%, 82.1%, 66% and 96%.
In the same order, the values of `CC(=O)Nc1ccc(C#Cc2cc(C(=O)NNC(=O)c3c(C)cccc3Cl)ccc2C)cn1` [I.6, N-(5-{5-[N′-(2-Chloro-6-methyl-benzoyl)hydrazinocarbonyl]-2-methyl-phenylethynyl}-pyridin-2-yl)acetamide] are 88.4%, 91.6%, 91%, 68% and 89%.
Regarding `Cc1ccc(C(=O)NNC(=O)c2ccc(CN3CCN(C)CC3)cc2)cc1C#Cc1ccc(NC(=O)C2CC2)nc1` [I.7, Cyclopropanecarboxylic acid [5-(2-methyl-5-{N′-[4-(4-methylpiperazin-1-ylmethyl)benzoyl]-hydrazinocarbonyl}phenylethynyl)pyridin-2-yl]amide], in test [1] (1 nM), the inhibition at 0.001 µM came to 24.6%. Testing at 0.01 µM in test [1] (10 nM) gave an inhibition of 78.6%. For the same molecule, the inhibition at 0.1 µM in test [1] (100 nM) amounted to 85.9%.
In the same order, the values of `Cc1cn(-c2cc(C(=O)NNC(=O)c3ccc(C)c(C#Cc4ccc(NC(=O)C5CC5)nc4)c3)cc(C(F)(F)F)c2)cn1` [I.8, Cyclopropanecarboxylic acid [5-(2-methyl-5-{N′-[3-(4-methylimidazol-1-yl)-5-trifluoromethylbenzoyl]-hydrazinocarbonyl}phenylethynyl)pyridin-2-yl]amide] are 68.9%, 84% and 86.1%.
As to `Cc1ccc(C(=O)NNC(=O)c2c(C)cccc2Cl)cc1C#Cc1ccc(NC(=O)NC2CC2)nc1` [I.9, 1-(5-{5-[N′-(2-Chloro-6-methyl-benzoyl)-hydrazinocarbonyl]-2-methyl-phenylethynyl}-pyridin-2-yl)-3-cyclopropylurea], at 0.001 µM the inhibition in test [1] (1 nM) was 61%. In test [1] (10 nM), this molecule gave an inhibition at 0.01 µM of 83.6%. The molecule further displayed an inhibition at 0.1 µM in test [1] (100 nM) of 87.8%.
With `Cc1ccc(C(=O)NNC(=O)c2c(C)cccc2Cl)cc1C#Cc1ccc(NC(=O)C(F)(F)F)nc1` [I.10], the “c-Abl kinase (K562 cells); % Inhibition” value in test [1] (1 nM) turned out to be 39.8%; in test [1] (10 nM), 78.5%; in test [1] (100 nM), 73.3%.
For `Cc1ccc(C(=O)NNC(=O)c2ccc(CN3CCN(C)CC3)c(C(F)(F)F)c2)cc1C#Cc1ccc(NC(=O)C2CC2)nc1` [I.11, Cyclopropanecarboxylic acid [5-(2-methyl-5-{N′-[4-(4-methylpiperazin-1-yl-methyl)-3-trifluoromethylbenzoyl]-hydrazinocarbonyl}phenylethynyl)pyridin-2-yl]amide], in test [1] (1 nM), testing at 0.001 µM gave an inhibition of 54%. This molecule registered an inhibition at 0.01 µM in test [1] (10 nM) of 58.3%. The molecule also returned an inhibition at 0.1 µM in test [1] (100 nM) of 57.2%.
Regarding `CCCC(=O)Nc1ccc(C#Cc2cc(C(=O)NNC(=O)c3c(C)cccc3Cl)ccc2C)cn1` [I.12], the “c-Abl kinase (K562 cells); % Inhibition” value in test [1] (1 nM) worked out at 33.6%; in test [1] (10 nM), 80.6%.
